According to US11453632B2, “1-phenyl-2-phenylethane derivative” (KAO CORPORATION, priority 2018, dated 2022):

How the values were obtained:
[1] = tested on: uterus of ovariectomized rat; assay: Uterus weight in ovariectomized (OVX) rat; format: in vivo
Procedure: 8-week-old female Crl:CD (SD) rats were obtained from Charles River Laboratories Japan, Inc. and individually identified by the ear punching method on the receipt date. Then, an acclimatization period was established for 1 week. The animals were raised in a rearing room under a set environment involving a temperature of 22±3° C., a humidity of 50±20%, air ventilation from 13 to 17 times/hour, and a lighting time from 8:00 to 20:00. During the acclimatization period, the rats were allowed to freely ingest solid feed CRF-1 (Oriental Yeast Co., Ltd.). Since the feeding with CRF-1, the rats were allowed to freely ingest customized feed AIN-93G (Oriental Yeast Co., Ltd.) free from components derived from soybeans.
On the end date of acclimatization and the following day, the flank cavity was opened under isoflurane anesthesia to harvest the right and left ovaries including fallopian tubes. Other non-OVX rats were subjected to only opening and suture (sham surgery). Immediately thereafter, an antibiotic was subcutaneously administered at a dose of 100 μl/animal. After the surgery, the sham surgery or OVX animals were given customized feed and raised for approximately 1 week.
From 1.5 hours before a shift from the light phase to the dark phase (18:30), a negative solvent (DMSO) or a test substance was subcutaneously administered at a dose of 0.5 ml/kg to the back of the neck according to Table 3 described below using a syringe and an injection needle.
After the completion of all procedures of measurement and analysis, the rats were euthanized by blood letting under isoflurane anesthesia, and the uterus was harvested. Wet weights were measured.
Skin temperatures differed largely among individuals, and the Smirnov-Grubbs test was conducted in order to exclude outliers beforehand. Results of measuring tail skin temperatures and results of measuring uterus weights were statistically analyzed by testing using the Dunnett's test.

[2] = tested on: prostate of testosterone-induced prostatic hyperplasia rat; assay: Efficacy on prostate in testosterone-induced prostatic hyperplasia rat; format: in vivo; details: testosterone 3 mg/kg/day plus test substance 0.1 or 1 mg/kg body weight/day, subcutaneous osmotic pump, 28 days, vs testosterone alone
Description: 12-week-old male Slc:SD (SPF) rats were obtained from Japan SLC, Inc. An acclimatization period was established for 1 week after receipt. During the acclimatization period, the rats were allowed to freely ingest a powder diet (AIN-93G).
2) Implantation of Osmotic Pump
After body weight measurement, back hair was shaved under isoflurane (AbbVie GK) inhalation anesthesia, and carprofen was subcutaneously administered to the rats. Then, an incision of approximately 1 cm at the maximum was made on the cranial side in the back. An osmotic minipump Alzet (Muromachi Kikai Co., Ltd.) containing testosterone and compound 17-F or finasteride (Sigma-Aldrich Co. LLC) was subcutaneously implanted. From this osmotic pump, testosterone (3 mg/kg body weight/day) (Sigma-Aldrich Co. LLC) and compound 17-F (0.1 mg/body weight/day or 1 mg/kg body weight/day) or finasteride (0.1 mg/kg body weight/day or 1 mg/kg body weight/day) were continuously administered for 28 days. Since the implantation of the osmotic pump, the rats were allowed to freely ingest customized feed AIN-93G (Oriental Yeast Co., Ltd.) free from components derived from soybeans.
3) Photographing of Skin and Harvesting of Prostate
After a lapse of 28 days, body weights were measured, and subsequently, the rats were euthanized by blood letting under isoflurane anesthesia. Back hair was shaved, followed by photographing. Then, the abdominal cavity was opened to harvest the prostate on the ventral side. Wet weights were measured.

ERβ LBD = target: T1, ERβ LBD (Homo sapiens, UniProt Q92731); assay: Ability to bind to ERβ: pBIND-ERβ LBD / GAL4 luciferase reporter in HEK293 cells; format: cell-based; design: key: RLU = firefly luminescence / Renilla luminescence; details: negative control 0.0118997
T1 construct: host or cells: HEK293
Procedure: This evaluation system is a system exploiting difference in the sequence of the ligand binding domain (LBD) between ERα and ERβ (J Endocrinol 163: 379-383 (1999)), and enables selective activation of ERβ to be evaluated by determining the binding of a ligand to LBD and the activation of ER.
A human kidney-derived cell line HEK293 was cultured (37° C., 5% CO2) in Dulbecco's modified Eagle medium (hereinafter, abbreviated to DMEM) containing 10% (v/v) fetal bovine serum (FBS) and penicillin/streptomycin.
2) Measurement of Binding Activity Against ERs
This measurement was carried out according to the method described in JP-B-5990058. Specifically, HEK293 cells were inoculated at a cell density of 4.0×10^4 cells/well to a 96-well plate. After 12 hours therefrom, the medium was replaced with a culture solution (DMEM containing 5% (v/v) charcoal-treated serum). The cells were cotransfected with pBIND-ERα for the expression of ERα LBD or pBIND-ERβ for the expression of ERβ LBD (Promega Corp.) and pGL4.35[luc2P/9XGAL4UAS/Hygro](Promega Corp.) using Lipofectamine 2000 (Invitrogen Corp.) according to the protocol attached to the product. 24 hours after transfection, the medium was replaced with a culture solution containing a test sample, followed by culture for another 24 hours. The activity measurement of firefly luciferase (index for the ligand binding activity of ER) and Renilla reniformis luciferase (index for the transfection efficiency of the plasmids) was carried out using Dual-Glo™ Luciferase Assay System (Promega Corp.) according to the attached protocol. The luminescence intensity of the firefly luciferase was divided by the luminescence intensity of the Renilla reniformis luciferase to calculate a relative light unit (RLU).

T1 sequence (Q92731 264-498 limits assumed): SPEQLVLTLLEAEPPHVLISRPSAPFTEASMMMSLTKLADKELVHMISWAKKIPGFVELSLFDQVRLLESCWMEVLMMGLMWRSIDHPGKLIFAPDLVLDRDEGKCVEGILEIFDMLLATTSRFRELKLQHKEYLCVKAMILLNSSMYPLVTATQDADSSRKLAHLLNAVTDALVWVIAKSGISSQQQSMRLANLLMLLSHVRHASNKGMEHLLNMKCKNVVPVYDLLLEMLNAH

melting point: 90 to 91 °C
uterus wet weight (FIG. 6) ([1]; 4 μg/kg/day subcutaneous, vs negative solvent group): no change in uterus weight was confirmed
relative light unit (RLU), ligand binding activity ERβ (ERβ LBD; 0.01 nM): 0.4273
relative light unit (RLU), ligand binding activity ERβ (ERβ LBD; 0.1 nM): 1.771
relative light unit (RLU), ligand binding activity ERβ (ERβ LBD; 1 nM): 2.021
relative light unit (RLU), ligand binding activity ERβ (ERβ LBD; 10 nM): 2.367
relative light unit (RLU), ligand binding activity ERβ (ERβ LBD; 100 nM): 2.186
Compound: Oc1ccc(CC(C=C(F)F)c2ccc(O)cc2F)c(F)c1 (stereo not shown) [Compound 17-F, 4,4′-(4,4-difluorobut-3-ene-1,2-diyl)bis(3-fluorophenol)]
uterus wet weight (FIG. 6) ([1]; increased dose of compound 17-F (40, 400 μg/kg/day) subcutaneous): elevated in a concentration-dependent manner
size of the prostate (visual, FIG. 1) [2]: Concentration-dependent decrease in the size of the prostate
weight of the prostate corrected with the body weight (FIG. 2) [2]: decreased to almost the same level as in the DMSO administration group
